Assay: gradient 5% acetonitrile 3 min, to 50% in 2 min, to 85% in 15 min, held 3 min, 100 µL/min
Conditions: column: Zorbax Extend-C18 2.1 x 50 mm; eluents: water / acetonitrile, 0.1% formic acid
How it was run: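 In both positive and negative ionization mode, a quadrupole time-of-flight mass spectrometer coupled to HPLC analyzed pure standards run in mixtures of ~100 molecules. The Zorbax Extend-C18 column (2.1 × 50 mm, 1.8 μm) was operated at 100 μL/min with water and acetonitrile, each containing 0.1% formic acid. The dead volume was 40 μL and the dwell volume 900 μL. Retention time came from adduct peaks that were computationally picked and individually inspected by hand.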

SMILES | RP-LC retention time [s]
CC1CCN(CCNC(=O)c2nc(CCS(=O)(=O)c3ccccc3)no2)CC1 | 635
Cc1ccc(F)cc1NC(=O)Cn1cnc2nc(N3CCCC(C(=O)NC(C)C)C3)sc2c1=O (stereo unspecified) | 712
COc1ccc(Cl)cc1NC(=O)COc1cc(C)nc(N2CCCC2)n1 | 613
CCN1CCN(CCCNC(=O)Cn2cnc3nc4c(cc3c2=O)CCCC4)CC1 | 554
Cc1cc(NS(=O)(=O)c2ccc(Nc3nc(-c4ccc(Cl)c(Cl)c4)cs3)cc2)no1 | 1130
Cc1c(N2CCCC2)cc2c(c1NC(=O)c1ccccc1Cl)C(C)(C)CC2(C)C | 874
CCn1cc(CCNS(=O)(=O)Cc2ccc(F)cc2Cl)c2cccnc21 | 812
CC(=O)NCc1ccc(-c2noc(Cc3c(F)cccc3Cl)n2)s1 | 834
Cc1cc(NC(=O)NC2CCN(c3nc4ccccc4n(C)c3=O)CC2)ccc1Br | 1050
O=C(Cn1c(=O)c2cccn2c2ccc(F)cc21)NCc1ccc(F)cc1 | 818
Cc1nc2ccn(Cc3ccco3)c(=O)c2cc1C(=O)N1CCN(c2ccccn2)CC1 | 602
CCC1CN(C(=O)Nc2ccc3c(c2)OCCO3)c2ccccc2O1 (stereo unspecified) | 966
CC(=O)CC(c1ccccc1)C1C(=O)Oc2ccccc2C1=O (stereo unspecified) | 1000
CC(C)CN1C(=O)c2cccn2CC1C(=O)NCCCN1CCOCC1 (stereo unspecified) | 577
COc1ccc(C(=O)N2CCc3ccc(C(=O)NC4CCN(C)CC4)cc32)cc1 | 618
CCOC(=O)c1ccc(Nc2nnc(CSc3nc(C)cc(C)n3)s2)cc1 | 834
COc1cc(-c2cccc(Cl)c2)nc2ccc(NC(C)=O)cc12 | 668
CCn1cccc1-c1nc(C)c(C(=O)NCCc2ccc(OC)c(OC)c2)s1 | 998
O=C(Nc1ccc(F)c(Cl)c1)Nc1c(-c2ccncc2)nc2ccccn12 | 628
Cc1ccc(-c2ccc(N3CCCC(C(=O)N4CCN(C(C)C)CC4)C3)nn2)cc1C (stereo unspecified) | 623
O=S(=O)(c1ccc(Br)cc1)N1CCc2nc(-c3ccccc3)ncc2C1 | 1120
CCc1ccc(Nc2nc(C(=O)NCCC3=CCCCC3)nc3ccccc23)cc1 | 1080

SMILES | RP-LC retention time [s]
COC(=O)c1cnc2nc(C)ccc2c1Nc1cc(F)ccc1F | 669
O=C(c1ccccc1)N1CCC(n2c(-c3ccoc3)nc3cccnc32)C1 (stereo unspecified) | 695
O=C(CN1C(=O)CC(c2ccccc2)=Nc2ccccc21)NCc1ccccc1 | 919
CCOC(=O)N1CCN(C(=O)c2cccc(-n3cnnn3)c2)CC1 | 619
CCCCN(C)C(=O)Cn1c(C2CC(=O)N(c3ccc(OC)cc3)C2)nc2ccccc21 (stereo unspecified) | 712
Nc1ccc(OC(=O)Nc2ccc(O)cc2)cc1 | 608
CCOC(=O)c1c(C)[nH]c(C(=O)N2CCC(C(C)C(=O)N3CCCC3)CC2)c1C (stereo unspecified) | 715
CCn1ccc(C(=O)NC(C)C)n1 | 642
CN(Cc1nc2ccccc2n1CC(=O)N(C)c1ccccc1)C(=O)c1ccco1 | 694
Cc1cccc(-c2nc(N3CCCCCC3)c3ccccc3n2)c1 | 848
COc1nc2ccccc2nc1N1CCCC(C(=O)Nc2cc(F)cc(F)c2)C1 (stereo unspecified) | 1170
CCS(=O)(=O)c1ccc2c(c1)N(Cc1nc(-c3ccc(OC(F)(F)F)cc3)no1)C(=O)CO2 | 1030
CC(=O)c1ccc(NC(=O)Cn2cnc3nc4c(cc3c2=O)CCCC4)cc1 | 671
Cc1csc(-c2cc(S(=O)(=O)Nc3ccc(Cl)cc3)c(C)s2)n1 | 1060
COc1cc(CCC(=O)N2CCC3(CC2)NCc2ccccc2-n2ccnc23)on1 | 584
Cn1cc(S(=O)(=O)N2CCOCC2)cc1C(=O)N1CCN(c2ccc(F)cc2)CC1 | 806
CC(C)CNC(=O)C1Cn2cccc2C(=O)N1 (stereo unspecified) | 651
Cc1cc(OCC(=O)N2CCCC(C)C2)nc(-c2ccc(Cl)cc2)n1 (stereo unspecified) | 1140
O=c1c2sccc2n(Cc2nc(-c3ccccc3)no2)c(=O)n1-c1ccc(Cl)cc1 | 1040
CC(C)Cc1ccc(S(=O)(=O)N(CCN2CCCCC2C)CC(=O)N2CCNCC2)cc1 (stereo unspecified) | 621
CCC1Oc2ccc(S(=O)(=O)N3CCC(C(=O)Nc4cc(Cl)ccc4C)CC3)cc2NC1=O (stereo unspecified) | 948
COC(=O)c1sccc1NC(=O)Cn1cc(-c2nc(-c3ccc(Cl)cc3)no2)ccc1=O | 1100

SMILES | RP-LC retention time [s]
CN(C)CCNC(=O)C1CCc2sc(C(=O)N3CCCC3)cc2C1 (stereo unspecified) | 660
O=C(CCc1nnn2c1CN(C(=O)C1CCCC1)CC2)N1CCOCC1 | 616
CCc1nnc(C2CCN(S(=O)(=O)c3cccnc3)CC2)s1 | 652
Cc1cc(SCC(=O)N2CCCc3ccccc32)nc(=O)[nH]1 | 677
CC1CCN(C(=O)c2cc(S(=O)(=O)N(C)CC(=O)NC(C)C)cn2C)CC1 | 723
COc1ccc(N2CCN(c3cc(SCC(=O)Nc4ccc(F)c(Cl)c4)ncn3)CC2)cc1 | 1060
COc1ccc(C(=O)N2CCCn3cc(-c4ccccc4F)nc32)cn1 | 587
Cc1noc(C)c1S(=O)(=O)N1[C@H]2CC[C@@H]1c1cnc(-c3ccc(F)cc3)nc1C2 | 1060
Cc1cc(C)cc(NS(=O)(=O)c2c(C)sc(C)c2-c2cc(C)[nH]n2)c1 | 1100
CCN(CC)CCCNC(=O)CN1C(=O)C2CCCCN2c2ccc(C(=O)N(C)C)cc21 (stereo unspecified) | 595
COc1ccc(-c2noc(Cn3ccn(-c4cc(C)cc(C)c4)c(=O)c3=O)n2)cc1 | 870
COc1ccc(NC(=O)C2CCN(c3cnc4nccnc4c3)CC2)cc1Cl | 712
CC(=O)N1CCc2ccccc2C1C(=O)NCc1ccc(C)c(C)c1 (stereo unspecified) | 833
Cc1ccccc1-c1cn2ccn(-c3ccc(Cl)cc3)c(=O)c2n1 | 883
Cc1ccc(N2C(=O)CN(CCc3cccs3)[C@H]3CS(=O)(=O)C[C@H]32)cc1 | 825
O=C(c1ccc(-c2nccnc2N2CCCC2)cc1)N1CCC(Cc2ccccc2)CC1 | 1110
Cc1cccc(-c2noc(-c3nn(CC(=O)NC4CCCCC4)c4ccccc34)n2)c1 | 1250
O=C(Cn1nc(C(=O)N2CCOCC2)c2ccccc21)NCc1ccc(F)cc1 | 715
O=C(COc1ccc(Cl)cc1)NCC1(O)CCOCC1 | 623
CCOC(=O)C1=C(CN2CCOCC2)NC(=O)NC1c1ccc(OC(C)C)cc1 (stereo unspecified) | 628
CCc1ccc(NS(=O)(=O)c2c(C)sc(C)c2-c2n[nH]c(C)c2C)cc1 | 1200
CCOc1ccccc1-c1noc(Cn2ncn3nc(-c4ccc(F)cc4)cc3c2=O)n1 | 1080
